In this data set the test system is human Cellular Inhibitor of Apoptosis-1 RNA. In words: Inhibition of Cellular Inhibitor of Apoptosis-1 mRNA levels by quantitative real-time PCR after oligonucleotide treatment of cells. The class given is cell-based. Particulars: for % Inhibition of Cellular Inhibitor of Apoptosis-1 mRNA levels: phosphorothioate oligodeoxynucleotides, oligonucleotide at final concentration of 150 nM with LIPOFECTIN, real-time PCR, averages from three experiments; for inhibition of Cellular Inhibitor of Apoptosis-1 expression: summary of Table 1, real-time PCR of mRNA levels. How it is done:
Cells were harvested 16 hours after oligonucleotide treatment.
Poly(A)+ mRNA was isolated according to Miura et al., Clin. Chem., 1996, 42, 1758-1764. Other methods for poly(A)+ mRNA isolation are taught in, for example, Ausubel, F. M. et al., Current Protocols in Molecular Biology, Volume 1, pp. 4.5.1-4.5.3, John Wiley & Sons, Inc., 1993. […] 60 μL lysis buffer (10 mM Tris-HCl, pH 7.6, 1 mM EDTA, 0.5 M NaCl, 0.5% NP-40, 20 mM vanadyl-ribonucleoside complex) was added to each well, the plate was gently agitated and then incubated at room temperature for five minutes. 55 μL of lysate was transferred to Oligo d(T) coated 96-well plates (AGCT Inc., Irvine Calif.). Plates were incubated for 60 minutes at room temperature, washed 3 times with 200 μL of wash buffer (10 mM Tris-HCl pH 7.6, 1 mM EDTA, 0.3 M NaCl). After the final wash, the plate was blotted on paper towels to remove excess wash buffer and then air-dried for 5 minutes. 60 μL of elution buffer (5 mM Tris-HCl pH 7.6), preheated to 70° C. was added to each well, the plate was incubated on a 90° C. hot plate for 5 minutes, and the eluate was then transferred to a fresh 96-well plate.
Cellular Inhibitor of Apoptosis-1 probes and primers were designed to hybridize to the human Cellular Inhibitor of Apoptosis-1 sequence, using published sequence information (GenBank accession number U37547, incorporated herein as SEQ ID NO:1).
For Cellular Inhibitor of Apoptosis-1 the PCR primers were: […]
Target sites are indicated by nucleotide numbers, as given in the sequence source reference (Genbank accession no. U37547), to which the oligonucleotide binds. All compounds in Table 1 are oligodeoxynucleotides with phosphorothioate backbones (internucleoside linkages) throughout. […] Data are averages from three experiments. If present, “N.D.” indicates “no data”.

The values below come from patent US20040009599A1, “Antisense modulation of cellular inhibitor of apoptosis-1 expression” (priority 1998, published 2004).

Strand notation (5' to 3'): a small letter for the sugar, then the base; units joined by * are phosphorothioate-linked, units joined directly phosphodiester-linked; [ ] holds rarer units or linkages, { } end groups; capitals alone tell only the bases. d = 2'-deoxy (DNA)

For “ISIS 23332: phosphorothioate oligodeoxynucleotide aaattacactccatagaa, 5′ UTR target site 4 (antisense dA*dA*dA*dT*dT*dA*dC*dA*dC*dT*dC*dC*dA*dT*dA*dG*dA*dA)”, the “% Inhibition of Cellular Inhibitor of Apoptosis-1 mRNA levels” value (shortened to “% Inhibition”) is 0%.

As to “ISIS 23333: phosphorothioate oligodeoxynucleotide aatcaactctactagcct, 5′ UTR target site 68 (antisense dA*dA*dT*dC*dA*dA*dC*dT*dC*dT*dA*dC*dT*dA*dG*dC*dC*dT)”, the “% Inhibition” value stood at 47% and the “inhibition of Cellular Inhibitor of Apoptosis-1 expression” value (from here on “inhibition … of Apoptosis-1 expression”) is “at least 20%”.

Regarding “ISIS 23334: phosphorothioate oligodeoxynucleotide ctagtgttatcagaaacg, 5′ UTR target site 139 (antisense dC*dT*dA*dG*dT*dG*dT*dT*dA*dT*dC*dA*dG*dA*dA*dA*dC*dG)”, the “% Inhibition” value was 0%.

In the case of “ISIS 23335: phosphorothioate oligodeoxynucleotide ttaaggactattcagcta, 5′ UTR target site 216 (antisense dT*dT*dA*dA*dG*dG*dA*dC*dT*dA*dT*dT*dC*dA*dG*dC*dT*dA)”, the “% Inhibition” value came to 0%.

“ISIS 23336: phosphorothioate oligodeoxynucleotide ttagttagccataaaatt, 5′ UTR target site 287 (antisense dT*dT*dA*dG*dT*dT*dA*dG*dC*dC*dA*dT*dA*dA*dA*dA*dT*dT)”: the “% Inhibition” value is 0%.

As to “ISIS 23337: phosphorothioate oligodeoxynucleotide actttcttcctaactttg, 5′ UTR target site 352 (antisense dA*dC*dT*dT*dT*dC*dT*dT*dC*dC*dT*dA*dA*dC*dT*dT*dT*dG)”, the “% Inhibition” value was found to be 0%.

For the substance “ISIS 23338: phosphorothioate oligodeoxynucleotide ttggcttaaagttcaaaa, 5′ UTR target site 435 (antisense dT*dT*dG*dG*dC*dT*dT*dA*dA*dA*dG*dT*dT*dC*dA*dA*dA*dA)”, the “% Inhibition” value was determined as 0%.

In the case of “ISIS 23339: phosphorothioate oligodeoxynucleotide aagtcaatacccacaagc, 5′ UTR target site 497 (antisense dA*dA*dG*dT*dC*dA*dA*dT*dA*dC*dC*dC*dA*dC*dA*dA*dG*dC)”, the “% Inhibition” value is listed as 0%.

On to “ISIS 23340: phosphorothioate oligodeoxynucleotide aaaagctaagttcacaca, 5′ UTR target site 576 (antisense dA*dA*dA*dA*dG*dC*dT*dA*dA*dG*dT*dT*dC*dA*dC*dA*dC*dA)”, for which the “% Inhibition” value amounted to 0%.

Take “ISIS 23341: phosphorothioate oligodeoxynucleotide aagcactttaacatgaca, 5′ UTR target site 661 (antisense dA*dA*dG*dC*dA*dC*dT*dT*dT*dA*dA*dC*dA*dT*dG*dA*dC*dA)”: the “% Inhibition” value came to 15%.

Consider “ISIS 23342: phosphorothioate oligodeoxynucleotide tatatgcaggcttctttc, 5′ UTR target site 684 (antisense dT*dA*dT*dA*dT*dG*dC*dA*dG*dG*dC*dT*dT*dC*dT*dT*dT*dC)”, for which the “% Inhibition” value came out at 23% and the “inhibition … of Apoptosis-1 expression” value was “at least 20%”.

As to “ISIS 23343: phosphorothioate oligodeoxynucleotide ataacagaccaattactg, 5′ UTR target site 724 (antisense dA*dT*dA*dA*dC*dA*dG*dA*dC*dC*dA*dA*dT*dT*dA*dC*dT*dG)”, the “% Inhibition” value is 0%.

“ISIS 23344: phosphorothioate oligodeoxynucleotide tgccttttatttatattt, 5′ UTR target site 764 (antisense dT*dG*dC*dC*dT*dT*dT*dT*dA*dT*dT*dT*dA*dT*dA*dT*dT*dT)”: the “% Inhibition” value is 0%.

Consider “ISIS 23345: phosphorothioate oligodeoxynucleotide aggtggatgcacttctga, 5′ UTR target site 858 (antisense dA*dG*dG*dT*dG*dG*dA*dT*dG*dC*dA*dC*dT*dT*dC*dT*dG*dA)”, for which the “% Inhibition” value came to 0%.

“ISIS 23346: phosphorothioate oligodeoxynucleotide ggtaacctaagtgctatt, 5′ UTR target site 915 (antisense dG*dG*dT*dA*dA*dC*dC*dT*dA*dA*dG*dT*dG*dC*dT*dA*dT*dT)”: the “% Inhibition” value was 0%.

For the substance “ISIS 23347: phosphorothioate oligodeoxynucleotide tcaggtaggatgagtatc, 5′ UTR target site 994 (antisense dT*dC*dA*dG*dG*dT*dA*dG*dG*dA*dT*dG*dA*dG*dT*dA*dT*dC)”, the “% Inhibition” value is given as 11%.

With “ISIS 23348: phosphorothioate oligodeoxynucleotide tttcttcacatgaactaa, 5′ UTR target site 1097 (antisense dT*dT*dT*dC*dT*dT*dC*dA*dC*dA*dT*dG*dA*dA*dC*dT*dA*dA)”, the “% Inhibition” value amounted to 0%.

Regarding “ISIS 23349: phosphorothioate oligodeoxynucleotide acctgggaaaagtctttg, Coding target site 1178 (antisense dA*dC*dC*dT*dG*dG*dG*dA*dA*dA*dA*dG*dT*dC*dT*dT*dT*dG)”, the “% Inhibition” value turned out to be 0%.

On to “ISIS 23350: phosphorothioate oligodeoxynucleotide caatctgacaagatcgtg, Coding target site 1234 (antisense dC*dA*dA*dT*dC*dT*dG*dA*dC*dA*dA*dG*dA*dT*dC*dG*dT*dG)”, for which the “% Inhibition” value came to 0%.

As to “ISIS 23351: phosphorothioate oligodeoxynucleotide tagagttcacaggaaaag, Coding target site 1285 (antisense dT*dA*dG*dA*dG*dT*dT*dC*dA*dC*dA*dG*dG*dA*dA*dA*dA*dG)”, the “% Inhibition” value is 0%.

“ISIS 23352: phosphorothioate oligodeoxynucleotide ccagattctgaataaagc, Coding target site 1491 (antisense dC*dC*dA*dG*dA*dT*dT*dC*dT*dG*dA*dA*dT*dA*dA*dA*dG*dC)”: the “% Inhibition” value was 0%.

“ISIS 23353: phosphorothioate oligodeoxynucleotide tttctcattggagacgta, Coding target site 1540 (antisense dT*dT*dT*dC*dT*dC*dA*dT*dT*dG*dG*dA*dG*dA*dC*dG*dT*dA)”: the “% Inhibition” value turned out to be 32% and the “inhibition … of Apoptosis-1 expression” value is reported as “at least 20%”.

Regarding “ISIS 23354: phosphorothioate oligodeoxynucleotide ccaaggtgggagataatg, Coding target site 1572 (antisense dC*dC*dA*dA*dG*dG*dT*dG*dG*dG*dA*dG*dA*dT*dA*dA*dT*dG)”, the “% Inhibition” value was determined as 3%.

As to “ISIS 23355: phosphorothioate oligodeoxynucleotide gagtaagaaccactgaac, Coding target site 1603 (antisense dG*dA*dG*dT*dA*dA*dG*dA*dA*dC*dC*dA*dC*dT*dG*dA*dA*dC)”, the “% Inhibition” value came to 0%.

On to “ISIS 23356: phosphorothioate oligodeoxynucleotide tagaattaagagggtttg, Coding target site 1632 (antisense dT*dA*dG*dA*dA*dT*dT*dA*dA*dG*dA*dG*dG*dG*dT*dT*dT*dG)”, for which the “% Inhibition” value turned out to be 0%.

Consider “ISIS 23357: phosphorothioate oligodeoxynucleotide tggtaggtaagaaatctg, Coding target site 1717 (antisense dT*dG*dG*dT*dA*dG*dG*dT*dA*dA*dG*dA*dA*dA*dT*dC*dT*dG)”, for which the “% Inhibition” value is listed as 0%.

For the substance “ISIS 23358: phosphorothioate oligodeoxynucleotide ttcccagttactgagctt, Coding target site 1835 (antisense dT*dT*dC*dC*dC*dA*dG*dT*dT*dA*dC*dT*dG*dA*dG*dC*dT*dT)”, the “% Inhibition” value is on record as 78% and the “inhibition … of Apoptosis-1 expression” value is recorded as “at least 20%”.

Turning to “ISIS 23359: phosphorothioate oligodeoxynucleotide ctcagatttgaaatgcta, Coding target site 1936 (antisense dC*dT*dC*dA*dG*dA*dT*dT*dT*dG*dA*dA*dA*dT*dG*dC*dT*dA)”, the “% Inhibition” value is given as 0%.
